Converted amounts (≈) assume the structure as drawn.

One test has as its system A. fumigatus. Nature of the test: In vitro antimycotic activity, macromethod of scalar broth dilutions (SDB). It counts as cell-based. Conditions: Aspergillus fumigatus, 168 h; A. fumigatus; SDB, incubation at 28°C for 7 days; read-out: MIC. Here is the method: (§1) The determination of the activity inhibiting the growth of mycetes was evaluated by the macromethod of scalar brothdilutions in geometrical progression (M.R. McGinnis and M.G. Rinaldi, "Antifungal drugs: mechanisms of action, drug resistance, susceptibility testing and assay of activity in biological fluids", in Antibiotic in Laboratory Medicine, Ed. V. Lorian, Baltimora 1991).
(§2) As culture media Yeast Nitrogen Base broth (YNB) and Sabouraud Dextrose broth (SDB) were used for yeasts and moulds, respectively.
(§3) The results obtained in SDB (after incubation at 28°C for 7 days) were expressed as minimum inhibiting concentrations (MIC) the growth of mycetes, while those obtained in YNB (after incubation at 35°C for 48 hours) were expressed as concentrations able to inhibit at 50% (IC50) the growth of the yeast.
(§4) As reference compounds Fluconazole, Itraconazole and Genaconazole were used.
In general terms: Dilution methods test growth across graded concentrations, often in twofold steps.

A further test deals with T.mentagrophytes. The test is described as above. The format is cell-based, Trychophyton mentagrophytes. Particulars: Trichophyton mentagrophytes, 168 h; T.mentagrophytes; SDB, incubation at 28°C for 7 days; read-out: MIC. The method, then:
as §1, §2, §3, §4

Another test has as its system C. albicans 1040. Nature of the test: In vitro antimycotic activity, macromethod of scalar broth dilutions (YNB). It counts as cell-based, Candida albicans. Conditions: Candida albicans; C. albicans 1040; YNB, incubation at 35°C for 48 hours; read-out: IC50. The method, then:
as §1, §2, §3, §4

A further test deals with C. neoformans. The test is described as above. The format is cell-based. Particulars: Cryptococcus neoformans; C. neoformans; YNB, incubation at 35°C for 48 hours; read-out: IC50. The method, then: as §1, §2, §3, §4
The test system of another test is Candida albicans 1040. Nature of the test: In vivo antimycotic activity in mice experimentally infected by C. albicans, oral route. Particulars: for PD50 at 8th day / PD50 at 14th day: oral route, probits analysis; for PD50 at 8th day: 8 days from the infection; for PD50 at 14th day: 14 days from the infection; for antimycotic activity in comparison with the compounds of formula II, statement in words: test not named, only in vivo data are printed for R1 and R2. Set-up: species or system Charles River white mice (CD1 strain). The method, then:
Charles River white mice (CD1 strain) weighing from 23 to 25 g, normo-feeded with standard diet and water ad libitum were used.
A suspension (0.2 ml containing 2.5x10^7 cells/ml) of Candida albicans 1040 in physiologic solution was injected to each animal by venous route. Immediately after the infection and after 4, 24 and 48 hours, the animals received by oral route (in arabic gum at 2%) doses increasing in a geometrical progression of the compound to be tested. The infected group was used as control.
The observation of the mortality of the mice was prolonged up to 14 days. From the number of survived animals for each concentration the average protective dose (DP50) was calculated by probits analysis (L.Lison - "Statistica applicata alla biologia sperimentale. La programmazione dell'esperimento e l'analisi dei risultati" - Casa Editrice Ambrosiana, 1961).
Compounds R1 and R2 were used as comparative compounds.
Fluconazole and Itraconazole were used as reference compounds.

For the compound `CCC(OC(F)(F)C(F)F)C(C)C(O)(Cn1cncn1)c1ccc(Cl)cc1Cl` (racemic) [Compound 2, (±)-1-(1H-1,2,4-triazolyl)-2-hydroxy-2-(2,4-dichlorophenyl)-3-methyl-4-(1,1,2,2-tetrafluoroethoxy)hexane], the minimum inhibitory concentration (MIC) (as a rule, the least concentration at which growth counts as inhibited) was determined as 4 µg/mL (≈ 9 µM) in the test on A. fumigatus and 2 µg/mL (≈ 4.5 µM) with T.mentagrophytes. Further, the half-maximal inhibitory concentration (IC50) – broadly, the concentration needed to halve the response being measured – was 0.0312 µg/mL (≈ 0.0702 µM) with C. albicans 1040 and 0.125 µg/mL (≈ 0.281 µM) with C. neoformans. In addition, the “% percentage of survival after day 3” value in the test on Candida albicans 1040 (mice infected by C. albicans, dose 25 mg/kg/os, day 3) stood at 100%. Further, the “% percentage of survival after day 6” value in the test with Candida albicans 1040 (mice infected by C. albicans, dose 25 mg/kg/os, day 6) worked out at 100%.
In the case of “(±)-1-(1H-1,2,4-triazolyl)-2-hydroxy-2-(2,4-difluorophenyl)-3,3-dimethyl-4-ethoxy-butane [Compound R1, reference compound]”, in the test on Candida albicans 1040, the “PD50 at 8th day” value is reported as above 4 mg/kg/os; the “PD50 at 14th day” value was above 4 mg/kg/os; the “antimycotic activity in comparison with the compounds of formula II, statement in words” value is “substantially inactive”.
As for `CC(C)(COC(F)(F)F)C(O)(Cn1cncn1)c1ccc(F)cc1F` (racemic) [Compound 12, (±)-1-(1H-1,2,4-triazolyl)-2-hydroxy-2-(2,4-difluorophenyl)-3,3-dimethyl-4-trifluoromethoxy-butane], the minimal inhibitory concentration (MIC) was 4 µg/mL (≈ 10.9 µM) in the test with A. fumigatus and 0.125 µg/mL (≈ 0.342 µM) with T.mentagrophytes. The half-maximal inhibitory concentration (IC50) with C. albicans 1040 and with C. neoformans was 0.0156 µg/mL (≈ 0.0427 µM) throughout. Also, in the test with Candida albicans 1040, the “PD50 at 8th day” value amounted to 1.09 mg/kg/os. Further, the “PD50 at 14th day” value in the test on Candida albicans 1040 is given as 1.39 mg/kg/os.
On to `CC(C)(COCC(F)(F)C(F)F)C(O)(Cn1cncn1)c1ccc(F)cc1F` (racemic) [Compound 10, (±)-1-(1H-1,2,4-triazolyl)-2-hydroxy-2-(2,4-difluorophenyl)-3,3-dimethyl-4-(2,2,3,3-tetrafluoropropoxy)butane], for which the minimal inhibitory concentration (MIC) stood at 8 µg/mL (≈ 19.4 µM) with A. fumigatus and 0.5 µg/mL (≈ 1.22 µM) in the test with T.mentagrophytes. Besides, the IC50 came out at 0.0156 µg/mL (≈ 0.0379 µM) in the test on C. albicans 1040 and 0.0625 µg/mL (≈ 0.152 µM) in the test on C. neoformans.
Turning to “(±)-1-(1H-1,2,4-triazolyl)-2-hydroxy-2-(2,4-difluorophenyl)-3-(2,2,3,3-tetrafluoropropoxy)butane [Compound R2, reference compound]”, in the test on Candida albicans 1040, the “PD50 at 8th day” value is reported as above 4 mg/kg/os; the “PD50 at 14th day” value was above 4 mg/kg/os; the “antimycotic activity in comparison with the compounds of formula II, statement in words” value was “substantially inactive”.
For the compound `CC(COC(F)(F)C(F)F)C(O)(Cn1cncn1)c1ccc(F)cc1F` (racemic) [Compound 6, (±)-1-(1H-1,2,4-triazolyl)-2-hydroxy-2-(2.4-difluorophenyl)-3-methyl-4-(1,1,2,2-tetrafluoroethoxy)butane], the minimum inhibitory concentration (MIC) in the test with A. fumigatus worked out at 16 µg/mL (≈ 41.7 µM); with T.mentagrophytes, 0.5 µg/mL (≈ 1.3 µM). For the same compound, the half-maximal inhibitory concentration (IC50) was 0.0312 µg/mL (≈ 0.0814 µM) in the test on C. albicans 1040 and 0.0625 µg/mL (≈ 0.163 µM) in the test with C. neoformans. The “PD50 at 8th day” value with Candida albicans 1040 turned out to be 0.42 mg/kg/os. Further, in the test with Candida albicans 1040, the “PD50 at 14th day” value was 1.10 mg/kg/os.
With `CC(C)(COC(F)(F)C(F)C(F)(F)F)C(O)(Cn1cncn1)c1ccc(F)cc1F` (racemic) [Compound 9], the MIC is above 128 µg/mL in the test on A. fumigatus and 2 µg/mL (≈ 4.47 µM) in the test on T.mentagrophytes. Besides, the half-maximal inhibitory concentration (IC50) in the test with C. albicans 1040 turned out to be 0.0156 µg/mL (≈ 0.0349 µM); in the test with C. neoformans, 0.125 µg/mL (≈ 0.279 µM). The “PD50 at 8th day” value in the test on Candida albicans 1040 is listed as 0.89 mg/kg/os. For the same compound, the “PD50 at 14th day” value with Candida albicans 1040 is reported as 1.57 mg/kg/os.
On to `CC(C)(COC(F)(F)C(F)F)C(O)(Cn1cncn1)c1ccc(Cl)cc1Cl` (racemic) [Compound 8, (±)-1-(1H-1,2,4-triazolyl)-2-hydroxy-2-(2,4-dichlorophenyl)-3,3-dimethyl-4-(1,1,2,2-tetrafluoroethoxy)butane], for which the MIC was above 4 µg/mL in the test with A. fumigatus and 0.25 µg/mL (≈ 0.581 µM) in the test on T.mentagrophytes. For the same compound, the IC50 in the test with C. albicans 1040 came out at 0.0312 µg/mL (≈ 0.0725 µM); in the test with C. neoformans it was 0.0156 µg/mL (≈ 0.0363 µM).
